These results are taken from patent US20220370546A1, “PEPTIDE, COMPOSITION, AND METHOD FOR TREATING, PREVENTING, OR AMELIORATING MOOD DISORDER” (KYOTO UNIVERSITY, priority 2019, published 2022).

The subject of this experiment is ddY mice. Nature of the experiment: Tail suspension test (evaluation of motivation-enhancing effect). Format: in vivo. Particulars: oral, in saline, n=5; 0.2 μmol/kg body weight; tail suspension test 30 minutes after administration. How it is done:
Each of the prepared peptides was administered to mice (ddY mice (5-week-old male mice 24 to 28 g in body weight)) by the method shown below. The mice were then subjected to a tail suspension test for the evaluation of a motivation-enhancing effect.
Each peptide was dissolved in saline. The solution was orally administered to mice (n=5) such that each of peptides 3, 4, and 8 was administered in a dose of 0.3 mg/kg body weight and each of peptides 1, 2, 5, 6, and 7 was administered in a dose of 0.2 μmol/kg body weight. Control mice (n=5) were orally administered with only saline. Each of the mice was subjected to a tail suspension test in which the peptide of the present invention was evaluated for its efficacy to enhance motivation.
Thirty minutes after the administration of the peptide, each mouse was suspended with its tail fixed 30 cm above the floor. Subsequently, during a period of 6 minutes from the start of the test (0 minutes), the time (immobility time) during which the mouse remained in a motionless state, observed after the start of escape behavior, was measured, and the measurements were averaged. The motionless state is known as “despair state”. […] This means that materials effective in enhancing motivation in this test may be effective in treating, preventing, or ameliorating mood disorders. […]

Consider QSQ [Peptide 1], for which the motivation-enhancing effect entry was “particularly high level of motivation-enhancing effect”.
Under SQK [Peptide 2] stands “particularly high level of motivation-enhancing effect”.
